We go through one compound from patent US20070149400A1, “6-(2-Chloro-4-alkoxyphenyl)triazolopyrimidines, their preparation and their use for controlling harmful fungi, and compositions comprising these compounds” (priority 2003, published 2007).

For the assay, the system named is Alternaria solani. Kind of assay: Activity against early blight of tomato caused by Alternaria solani (protective spray, potted plants). The note with it: 63 ppm active compound, tomato cultivar Goldene Prinzessin, infected next day, assessed after 5 days; untreated plants 90% infected. The class given is in vivo. The method, then:
The active compounds were prepared as a stock solution comprising 0.25% by weight of active compound in acetone or DMSO. 1% by weight of the emulsifier Uniperol® EL (wetting agent having emulsifying and dispersing action based on ethoxylated alkylphenols) was added to this solution, and the mixture was diluted with water to the desired concentration. Leaves of potted plants of the cultivar “Goldene Prinzessin” were sprayed to run off point with an aqueous suspension having the concentration of active compounds stated below. The next day, the leaves were infected with an aqueous […] suspension of Alternaria solani in 2% biomalt solution having a density of 0.17×10^6 spores/ml. The plants were then placed in a water-vapor-saturated chamber at temperatures of between 20 and 22° C. After 5 days, the disease on the leaves of the untreated, but infected control plants had developed to such an extent that the infection could be determined visually in %.

For the compound `CCC(C)Nc1c(-c2ccc(OC)cc2Cl)c(Cl)nc2ncnn12` (racemic) [Compound I-3, 5-chloro-6-(2-chloro4-methoxyphenyl)-7-but-2-ylamino-[1,2,4]-triazolo[1,5-a]pyrimidine], the “infection of the leaves, determined visually in %” value is listed as “no infection”.
